# Experiments:
# [1] = Peak depolarizations produced by injections of 100 micro M Ins p3 isomers in nine cells; assay type: cell-based
# [2] = Peak depolarizations produced by injections of 100 micro M Ins p3 isomers in six cells; assay type: cell-based
Depolarisation [1] [mV],Depolarisation [2] [mV],Structure (SMILES)
24,–,"O=P(O)(O)OC1C(O)C(O)C(OP(=O)(O)O)C(OP(=O)(O)O)C1O (stereo in doubt; form 1) [INOSITOL (1,4,5) (PHOSPHATE)3]"
–,32.5,"O=P(O)(O)OC1C(O)C(O)C(OP(=O)(O)O)C(OP(=O)(O)O)C1O (stereo in doubt; form 2) [INOSITOL (1,4,5) (PHOSPHATE)3]"
5.7,3.4,"O=P(O)(O)OC1C(O)C(O)C(OP(=O)(O)O)C(OP(=O)(O)O)C1O (stereo in doubt; form 3) [INOSITOL (1,4,5) (PHOSPHATE)3]"
